According to paper PMC11042424, “Development of a First-in-Class RIPK1 Degrader to Enhance Antitumor Immunity” (Research Square, 2024):

Experiments:
Plasma protein binding = type: in vitro ADME; conditions: read-out: bound to plasma proteins (converted)
B16F10 tumors = experiment: Five-day treatment of B16F10 tumors: cell death and tumor immune microenvironment; type: in vivo, C57BL/6J mice
From the text: Figure 5 LD4172 alters the tumor immune microenvironment. A. Representative immunofluorescent images depict RIPK1, Calreticulin, CD8, CD4, Foxp3, or F4/80, as well as hematoxylin and eosin (H&E) images, alongside representative images illustrating cleaved caspase3/7 levels in B16F10 tumors under the indicated treatment for five days. n = 4–6 independent fields per group. Scale bars are shown as follows: 20 μm, objective 60X; 200 μm, objective 60X. B. The mouse plasma HMGB1 level from different treatment groups (n=8). C-G. Flow cytometry quantification of PD1+CD8+ T cells (C), CD4+ T cells (D), cDC cells (E), macrophages (F), and CD8+ T cells (G) in B16F10 tumors following 5 days of indicated treatment (n = 10/group). H. Flow cytometric quantification of IFNγ+ CD8+ T cells in B16F10 tumors treated with the indicated treatments for 5 days and stimulated with PMA/ionomycin in vitro for 6 h (n = 10/group). I. Tumor volume (mm3) of vehicle-, anti-PD1-, LD4172-, anti-PD1+LD4172-, and anti-PD1+LD4172+anti-CD8–treated B16F10 tumors (n=8). J. Heat map showing log 10-fold changes in the concentration of mouse plasma cytokines normalized by the mean value of control mice (n=8). For all experiments: LD4172: 20 mg/kg; anti-PD1 antibody: 100 μg/mice; Combo: LD4172 plus anti-PD1. Representative data from at least three independent experiments are shown. Data are expressed as the mean ± SEM. * p<0.05; ** p<0.01; *** p<0.001; **** p<0.0001, respectively. “ns” indicates no statistical significance.
Tumors were collected on day 13, weighed, mechanically diced, and digested with liberase (2 mg/mL, 05401020001, Roche) and DNase I (50 μg/mL, 11284932001, Sigma-Aldrich) at 37°C for 30 minutes with rotation. Single-cell suspensions were obtained by filtering the digested tissues through a 45 μm strainer, after which erythrocytes were removed using 1x RBC lysis buffer (420301, Biolegend). To stain the cell surface markers of tumor-infiltrating lymphocytes (TILs), single-cell suspensions were blocked with anti-mouse CD16/32 (156603, BioLegend) for 10 minutes on ice, and then incubated with fluorochrome-labeled antibodies diluted with staining buffer (1:50, PBS, 2% FBS, 0.1% EDTA) for 30 minutes on ice in the dark. Dead cells were excluded using DAPI (1:1,000, BioLegend). After washing, cells were resuspended in 300–500 μL staining buffer for flow cytometry analysis. For intracellular cytokine staining, cells were incubated in culture medium (RPMI-1640, 10% FBS, Brefeldin A or Cell Activation Cocktail (with Brefeldin A)) at 37°C for 6 h. Cells were stained with eBioscience™ Fixable Viability Dye eFluor™ 450, TruStain FcX™ PLUS and surface CD45, CD3ε, CD8a. Cells were fixed-permeabilized by Intracellular Fixation & Permeabilization Buffer Set (Biolegend, 421403) according to the manufacturer’s protocol. Then cells were stained with anti-IFNγ (XMG1.2) for 1 hour at room temperature (RT). Cells were resuspended in FACS buffer and subjected to BD LSR-II for analysis.
Mouse serum was analyzed using multiplex immunoassays designed for mice (Mouse Cytokine Array / Chemokine Array 31-Plex (MD31) from Eve Technologies), with 8 replicates from each group. Heatmaps display relative cytokine expression values normalized to vehicle-treated samples. Serum HMGB1 was analyzed by ELISA (NOVUS, NBP2–62767) according to the manufacturer’s protocol.
For H&E staining, the hydrated slides were stained with hematoxylin and eosin. For IHC analysis, after hydration, the sections were subjected to antigen retrieval by incubating in citrate buffer (pH 6.0), Tris EDTA buffer (pH 9.0), or EDTA buffer (pH 8.0) at 121°C for 15 minutes. Endogenous peroxidase was blocked with 3% H2O2 in PBS, and non-specific binding was blocked with 2.5% normal serum for 1 hour at room temperature. The sections were then incubated with the respective primary antibodies overnight at 4°C. […]

Structure (SMILES): Cc1ncsc1-c1ccc([C@H](C)NC(=O)[C@@H]2C[C@@H](O)CN2C(=O)[C@@H](NC(=O)CCCCCCCCCCC(=O)NCCCn2cc(-c3ccc4c(c3)CCN4C(=O)Cc3cccc(OC(F)(F)F)c3)c3c(N)ncnc32)C(C)(C)C)cc1 [LD4172]
- fraction unbound (Plasma protein binding): 0.014
- RIPK1 degradation in the tumor (B16F10 tumors; 20 mg/kg): substantial degradation of RIPK1
- cell death in the tumor (H&E) (B16F10 tumors; 20 mg/kg): significant cell death
- cleaved caspase 3/7 levels in tumors (B16F10 tumors; 20 mg/kg): notable increase
- plasma HMGB1 levels (B16F10 tumors; 20 mg/kg): significant increase
- CD4 + T cells, conventional dendritic cells and macrophages within the TME (B16F10 tumors; 20 mg/kg, flow cytometry): notable expansion
- cytotoxic CD8 + T cells within the TME, combined with anti-PD1 (B16F10 tumors; LD4172 20 mg/kg plus anti-PD1 100 μg): increased infiltration
